Consider 16 compounds from ChEMBL document CHEMBL2311464, “Potent inhibitors of CDK5 derived from roscovitine: synthesis, biological evaluation and molecular modelling” (Bioorg Med Chem Lett, 2013).

In test [1] the target is Cyclin-dependent kinase 5/CDK5 activator 1 (Homo sapiens, UniProt Q00535). In words: Inhibition of recombinant human CDK5/p25 after 30 mins by scintillation counting. Format: protein-complex assay.
Test [2] is described as follows: Inhibition of porcine brain CK1 delta/epsilon using RRKHAAIGpSAYSITA as substrate measured after 30 mins by scintillation counting. On the set-up: species or system Sus scrofa.
The nature of the next test: cells. The following applies: Homo sapiens, SH-SY5Y, 48 h.
For test [3], the target named is Cyclin-dependent kinase 2/cyclin A (Homo sapiens, UniProt P24941). The experiment in a line: Inhibition of recombinant human CDK2/cyclin A after 30 mins by scintillation counting. In kind it is protein-complex assay.
In test [4] the target is Glycogen synthase kinase-3 (Sus scrofa, UniProt B2LUN4+I6LNT8). The experiment in a line: Inhibition of porcine GSK-3alpha/beta using YRRAAVPPSPSLSRHSSPHQSpEDEEE as substrate measured after 30 mins by scintillation counting.

Sequence of Cyclin-dependent kinase 5/CDK5 activator 1 (Q00535 whole entry): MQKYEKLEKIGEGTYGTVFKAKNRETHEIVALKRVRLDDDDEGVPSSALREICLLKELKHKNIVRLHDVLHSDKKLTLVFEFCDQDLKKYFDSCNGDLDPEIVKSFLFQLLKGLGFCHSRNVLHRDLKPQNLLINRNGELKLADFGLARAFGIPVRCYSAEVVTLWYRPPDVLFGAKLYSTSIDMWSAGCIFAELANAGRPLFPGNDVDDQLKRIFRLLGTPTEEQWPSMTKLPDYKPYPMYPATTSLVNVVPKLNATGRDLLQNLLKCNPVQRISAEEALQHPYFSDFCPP
Sequence of Cyclin-dependent kinase 5/CDK5 activator 1 (Q15078 whole entry, further chain): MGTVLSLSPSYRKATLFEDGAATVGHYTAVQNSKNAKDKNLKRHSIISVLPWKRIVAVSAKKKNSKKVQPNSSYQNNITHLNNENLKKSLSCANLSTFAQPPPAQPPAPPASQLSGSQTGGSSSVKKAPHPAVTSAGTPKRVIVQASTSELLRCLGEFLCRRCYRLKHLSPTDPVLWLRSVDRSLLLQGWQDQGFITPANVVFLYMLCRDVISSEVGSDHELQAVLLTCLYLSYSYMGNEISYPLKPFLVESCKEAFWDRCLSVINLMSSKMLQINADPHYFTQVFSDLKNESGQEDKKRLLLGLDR
Description for cells: Cytotoxicity against human SH-SY5Y cells after 48 hrs by MTS assay

Regarding `CC(C)n1cnc2c(Nc3ccccn3)nc(Cl)nc21`, the IC50 in test [1] is 2100 nM; in test [2], 3000 nM; in the test “cells” it was 1800 nM; in test [3], 6200 nM; in test [4] it was greater than 10000 nM.
The corresponding values for `CC[C@H](CO)Nc1nc(Nc2cncnc2)c2ncn(C(C)C)c2n1` are 42 nM, 600 nM, 1800 nM, 18 nM and greater than 10000 nM.
The corresponding values for `CC(C)[C@H](CO)Nc1nc(Nc2ccccn2)c2ncn(C(C)C)c2n1` are 1100 nM, 6200 nM, 1800 nM, 800 nM and greater than 10000 nM.
Regarding `CC(C)[C@@H](CO)Nc1nc(Nc2ccncc2)c2ncn(C(C)C)c2n1`, the IC50 in test [1] came out at 200 nM; in test [2] it was 3300 nM; in “cells”, 1800 nM; in test [3], 130 nM; in test [4], 7800 nM.
On to `CC[C@H](CO)Nc1nc(Nc2ccncn2)c2ncn(C(C)C)c2n1`, for which the figures for the IC50 in test [2], in test [3] and in test [4] were 5800 nM, 1200 nM and greater than 10000 nM, respectively.
As to `CC(C)[C@H](CO)Nc1nc(Nc2cncnc2)c2ncn(C(C)C)c2n1`, the IC50 in test [1] worked out at 38 nM; in test [2], 1300 nM; in “cells” it was 1800 nM; in test [3] it was 20 nM; in test [4] it was 5000 nM.
The corresponding values for `CC(C)[C@@H](CO)Nc1nc(Nc2ccccn2)c2ncn(C(C)C)c2n1` are 1900 nM, 11000 nM, 1800 nM, 1200 nM and greater than 10000 nM.
For `CC(C)n1cnc2c(Nc3cncnc3)nc(Nc3cncnc3)nc21`, in that order: 360 nM, 220 nM, 1800 nM, 170 nM and greater than 10000 nM.
For `CC[C@@H](CO)Nc1nc(Nc2ncccn2)c2ncn(C(C)C)c2n1`, in that order: 11000 nM, greater than 10000 nM, 1800 nM, 7300 nM and greater than 10000 nM.
In the case of `CC[C@@H](CO)Nc1nc(Nc2cncnc2)c2ncn(C(C)C)c2n1`, the IC50 was 76 nM in test [1]; 930 nM in test [2]; 1800 nM in the test “cells”; 23 nM in test [3]; greater than 10000 nM in test [4].
As to `CC[C@H](CO)Nc1nc(Nc2ncccn2)c2ncn(C(C)C)c2n1`, the half-inhibitory concentration (IC50) in test [1] was greater than 10000 nM; in test [2] it was greater than 10000 nM; in the test “cells”, 1800 nM; in test [3] it was greater than 10000 nM; in test [4], greater than 10000 nM.
Turning to `CC[C@@H](CO)Nc1nc(Nc2cccnc2)c2ncn(C(C)C)c2n1`, the IC50 was 90 nM in test [1]; 2000 nM in test [2]; 1800 nM in “cells”; 14 nM in test [3]; greater than 10000 nM in test [4].
For `CC[C@@H](CO)Nc1nc(Nc2ccncn2)c2ncn(C(C)C)c2n1`, the IC50 in test [2] is 8300 nM; in test [3], 2000 nM; in test [4], greater than 10000 nM.
As to `CC(C)n1cnc2c(Nc3ccncc3)nc(Cl)nc21`, the IC50 worked out at 7400 nM in test [1]; 2100 nM in test [2]; 1800 nM in the test “cells”; 700 nM in test [3]; 18000 nM in test [4].
The corresponding values for `CC(C)[C@H](CO)Nc1nc(Nc2ncccn2)c2ncn(C(C)C)c2n1` are greater than 10000 nM, greater than 10000 nM, 1800 nM, greater than 10000 nM and greater than 10000 nM.
Regarding `CC[C@H](CO)Nc1nc(NCc2ccccc2)c2ncn(C(C)C)c2n1` [SELICICLIB], the IC50 in test [2] was found to be 2300 nM; in “cells” it was 17400 nM.

A word on the IC50: it is the concentration that inhibits the measured activity by half.
